Where a name gives a salt, the structure may show the parent alone.

TrkA, sequence (P04629 33-796): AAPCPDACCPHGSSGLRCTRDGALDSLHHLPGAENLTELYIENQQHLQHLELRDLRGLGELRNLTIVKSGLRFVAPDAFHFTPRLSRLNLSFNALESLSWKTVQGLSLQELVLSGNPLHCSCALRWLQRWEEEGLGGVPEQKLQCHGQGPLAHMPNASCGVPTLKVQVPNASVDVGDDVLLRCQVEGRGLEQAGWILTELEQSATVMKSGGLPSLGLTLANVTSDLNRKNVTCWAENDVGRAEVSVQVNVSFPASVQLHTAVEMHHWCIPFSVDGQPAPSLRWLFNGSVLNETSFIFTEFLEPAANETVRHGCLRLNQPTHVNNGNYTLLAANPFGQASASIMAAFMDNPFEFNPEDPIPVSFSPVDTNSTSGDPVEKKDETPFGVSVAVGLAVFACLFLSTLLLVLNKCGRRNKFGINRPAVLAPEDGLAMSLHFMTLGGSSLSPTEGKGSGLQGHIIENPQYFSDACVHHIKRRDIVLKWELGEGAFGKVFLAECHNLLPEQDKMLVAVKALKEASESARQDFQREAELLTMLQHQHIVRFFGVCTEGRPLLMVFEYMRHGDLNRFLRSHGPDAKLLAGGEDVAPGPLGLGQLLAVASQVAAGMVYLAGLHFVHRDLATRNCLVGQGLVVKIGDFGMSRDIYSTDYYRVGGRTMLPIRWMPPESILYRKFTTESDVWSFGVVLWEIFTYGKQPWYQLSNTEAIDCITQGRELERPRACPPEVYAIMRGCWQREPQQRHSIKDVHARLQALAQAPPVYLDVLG

This assay addresses TrkA (Homo sapiens (Human), UniProt P04629). Kind of assay: TrkA Omnia Assay. Conditions: averaged IC50; 20 nM enzyme, 500 μM ATP, 10 μM peptide substrate. It counts as biochemical. In short, it runs like this: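 Recombinant TrkA (20 nM) preincubated 10 min at ambient temperature with compound, then Omnia Tyr Peptide #4 (10 μM) and ATP (500 μM) added in 25 mM MOPS pH 7.5, 5 mM MgCl2, 0.005% Triton X-100. Fluorescence (ex 360/em 485 nm) followed continuously for 70 min; IC50 from initial rates by 4- or 5-parameter logistic fit.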
In the case of `CCOc1nn(-c2ccccc2)c(NC(=O)N[C@@H]2CN(c3ccccc3F)C[C@H]2c2ccccc2)c1C` [Example 234, 1-(3-ethoxy-4-methyl-1-phenyl-1H-pyrazol-5-yl)-3-((3S,4R)-1-(2-fluorophenyl)-4-phenylpyrrolidin-3-yl)urea], the 50% inhibitory concentration (IC50) is 100 to 1000 nM. As for `CCOc1nn(-c2ccccc2)c(NC(=O)N[C@@H]2CN(c3ccc(F)cc3)C[C@H]2c2ccccc2)c1C` [Example 235, 1-(3-ethoxy-4-methyl-1-phenyl-1H-pyrazol-5-yl)-3-((3S,4R)-1-(4-fluorophenyl)-4-phenylpyrrolidin-3-yl)urea], the figure is 100 to 1000 nM; as for `CCOc1nn(-c2ccccc2)c(NC(=O)N[C@@H]2CN(c3ccccc3C)C[C@H]2c2ccccc2)c1C` [Example 236, 1-(3-ethoxy-4-methyl-1-phenyl-1H-pyrazol-5-yl)-3-((3S,4R)-1-(2-methylphenyl)-4-phenylpyrrolidin-3-yl)urea], 100 to 1000 nM; as for `CCOc1nn(-c2ccccc2)c(NC(=O)N[C@@H]2CN(c3ccccc3OC)C[C@H]2c2ccccc2)c1C` [Example 237, 1-(3-ethoxy-4-methyl-1-phenyl-1H-pyrazol-5-yl)-3-((3S,4R)-1-(2-methoxyphenyl)-4-phenylpyrrolidin-3-yl)urea], 100 to 1000 nM. For the compound `CCOc1nn(-c2ccccc2)c(NC(=O)N[C@@H]2CN(c3ccccc3Cl)C[C@H]2c2ccccc2)c1C` [Example 238, 1-(3-ethoxy-4-methyl-1-phenyl-1H-pyrazol-5-yl)-3-((3S,4R)-1-(2-chlorophenyl)-4-phenylpyrrolidin-3-yl)urea], the IC50 lay within 100 to 1000 nM. As for `CCOc1nn(-c2ccccc2)c(NC(=O)N[C@@H]2CN(c3ccccc3OC(F)(F)F)C[C@H]2c2ccccc2)c1C` [Example 239, 1-(3-ethoxy-4-methyl-1-phenyl-1H-pyrazol-5-yl)-3-((3S,4R)-4-phenyl-1-(2-(trifluoromethoxy)phenyl)pyrrolidin-3-yl)urea], the figure is 100 to 1000 nM. The value for `CCOc1nn(-c2ccccc2)c(NC(=O)N[C@@H]2CN(c3c(F)cccc3F)C[C@H]2c2ccccc2)c1C` [Example 240, 1-((3S,4R)-1-(2,6-difluorophenyl)-4-phenylpyrrolidin-3-yl)-3-(3-ethoxy-4-methyl-1-phenyl-1H-pyrazol-5-yl)urea] was 100 to 1000 nM. The value for `CCOc1nn(-c2ccccc2)c(NC(=O)N[C@@H]2CN(c3ccnc(OC)c3)C[C@H]2c2ccccc2)c1C` [Example 241, 1-(3-ethoxy-4-methyl-1-phenyl-1H-pyrazol-5-yl)-3-((3S,4R)-1-(2-methoxypyridin-4-yl)-4-phenylpyrrolidin-3-yl)urea] was 100 to 1000 nM; that for `CCOc1nn(-c2ccccc2)c(NC(=O)N[C@@H]2CN(c3cccnc3OC)C[C@H]2c2ccccc2)c1C` [Example 242, 1-(3-ethoxy-4-methyl-1-phenyl-1H-pyrazol-5-yl)-3-((3S,4R)-1-(2-methoxypyridin-3-yl)-4-phenylpyrrolidin-3-yl)urea] was less than 100 nM. Turning to `CCOc1ncccc1N1C[C@@H](NC(=O)Nc2c(C)c(OCC)nn2-c2ccccc2)[C@H](c2ccccc2)C1` [Example 243, 1-(3-ethoxy-4-methyl-1-phenyl-1H-pyrazol-5-yl)-3-((3S,4R)-1-(2-ethoxypyridin-3-yl)-4-phenylpyrrolidin-3-yl)urea], the IC50 was less than 100 nM. The value for `COc1ncccc1N1C[C@@H](NC(=O)Nc2c(C)c(-c3ccccc3)nn2-c2ccccc2)[C@H](c2ccccc2)C1` [Example 245, 1-((3S,4R)-1-(2-methoxypyridin-3-yl)-4-phenylpyrrolidin-3-yl)-3-(4-methyl-1,3-diphenyl-1H-pyrazol-5-yl)urea] was 100 to 1000 nM. In turn, `COc1ncccc1N1C[C@@H](NC(=O)Nc2c(Br)c(-c3cnn(C)c3)nn2-c2ccccc2)[C@H](c2ccccc2)C1` [Example 246, 1-(4-bromo-1′-methyl-1-phenyl-1H,1′H-[3,4′-bipyrazol]-5-yl)-3-((3S,4R)-1-(2-methoxypyridin-3-yl)-4-phenylpyrrolidin-3-yl)urea] yielded an IC50 of less than 100 nM. As for `COc1ncccc1N1C[C@@H](NC(=O)Nc2c(Br)c(-c3ccccc3)nn2-c2ccccc2)[C@H](c2ccccc2)C1` [Example 247, 1-(4-bromo-1,3-diphenyl-1H-pyrazol-5-yl)-3-((3S,4R)-1-(2-methoxypyridin-3-yl)-4-phenylpyrrolidin-3-yl)urea], the figure is 100 to 1000 nM. The value for `O=C(Nc1c2c(nn1-c1ccccc1)CCC2)N[C@@H]1CN(Cc2csnn2)C[C@H]1c1ccc(F)c(F)c1` [Example 248, 1-((3S,4R)-1-((1,2,3-thiadiazol-4-yl)methyl)-4-(3,4-difluorophenyl)pyrrolidin-3-yl)-3-(2-phenyl-2,4,5,6-tetrahydrocyclopenta[c]pyrazol-3-yl)urea] was less than 100 nM; that for `CCOc1nn(-c2ccccc2)c(NC(=O)N[C@@H]2CN(Cc3csnn3)C[C@H]2c2ccc(F)c(F)c2)c1C` [Example 249, 1-((3S,4R)-1-((1,2,3-thiadiazol-4-yl)methyl)-4-(3,4-difluorophenyl)pyrrolidin-3-yl)-3-(3-ethoxy-4-methyl-1-phenyl-1H-pyrazol-5-yl)urea] was less than 100 nM. As for `Cc1c(OCC#N)nn(-c2ccccc2)c1NC(=O)N[C@@H]1CN(Cc2csnn2)C[C@H]1c1ccc(F)c(F)c1` [Example 250, 1-((3S,4R)-1-((1,2,3-thiadiazol-4-yl)methyl)-4-(3,4-difluorophenyl)pyrrolidin-3-yl)-3-(3-(cyanomethoxy)-4-methyl-1-phenyl-1H-pyrazol-5-yl)urea], the figure is less than 100 nM; as for `Cc1c(-c2cnn(C)c2)nn(-c2ccccc2)c1NC(=O)N[C@@H]1CN(Cc2csnn2)C[C@H]1c1ccc(F)c(F)c1` [Example 251, 1-((3S,4R)-1-((1,2,3-thiadiazol-4-yl)methyl)-4-(3,4-difluorophenyl)pyrrolidin-3-yl)-3-(1′,4-dimethyl-1-phenyl-1H, 1′H-3,4′-bipyrazol-5-yl)urea], less than 100 nM; as for `Cc1c(-c2cn(C)cn2)nn(-c2ccccc2)c1NC(=O)N[C@@H]1CN(Cc2csnn2)C[C@H]1c1ccc(F)c(F)c1` [Example 252, 1-((3S,4R)-1-((1,2,3-thiadiazol-4-yl)methyl)-4-(3,4-difluorophenyl)pyrrolidin-3-yl)-3-(4-methyl-3-(1-methyl-1H-imidazol-4-yl)-1-phenyl-1H-pyrazol-5-yl)urea], less than 100 nM. Consider `Cn1cc(CN2C[C@@H](NC(=O)Nc3c4c(nn3-c3ccccc3)CCC4)[C@H](c3ccc(F)c(F)c3)C2)nn1` [Example 253, 1-((3S,4R)-4-(3,4-difluorophenyl)-1-((1-methyl-1H-1,2,3-triazol-4-yl)methyl)pyrrolidin-3-yl)-3-(2-phenyl-2,4,5,6-tetrahydrocyclopenta[c]pyrazol-3-yl)urea], for which the IC50 lay within 100 to 1000 nM. As for `CCOc1nn(-c2ccccc2)c(NC(=O)N[C@@H]2CN(C(COC)COC)C[C@H]2c2ccc(F)c(F)c2)c1C` [Example 254, 1-((3S,4R)-4-(3,4-difluorophenyl)-1-(1,3-dimethoxypropan-2-yl)pyrrolidin-3-yl)-3-(3-ethoxy-4-methyl-1-phenyl-1H-pyrazol-5-yl)urea], the figure is less than 100 nM; as for `CCOc1nn(-c2ccccc2)c(NC(=O)N[C@@H]2CN(C(C)COC)C[C@H]2c2ccc(F)c(F)c2)c1C` (stereo partly drawn) [Example 255, 1-((3S,4R)-4-(3,4-difluorophenyl)-1-(1-methoxypropan-2-yl)pyrrolidin-3-yl)-3-(3-ethoxy-4-methyl-1-phenyl-1H-pyrazol-5-yl)urea], less than 100 nM.

For `COCC(C(=O)OC)N1C[C@@H](NC(=O)Nc2c3c(nn2-c2ccccc2)CCC3)[C@H](c2ccc(F)c(F)c2)C1` (stereo partly drawn) [Example 259, methyl2-((3R,4S)-3-(3,4-difluorophenyl)-4-(3-(2-phenyl-2,4,5,6-tetrahydrocyclopenta[c]pyrazol-3-yl)ureido)pyrrolidin-1-yl)-3-methoxypropanoate], the IC50 was less than 100 nM. Regarding `COCC(CO)N1C[C@@H](NC(=O)Nc2c3c(nn2-c2ccccc2)CCC3)[C@H](c2ccc(F)c(F)c2)C1` (stereo partly drawn) [Example 260, 1-((3S,4R)-4-(3,4-difluorophenyl)-1-(1-hydroxy-3-methoxypropan-2-yl)pyrrolidin-3-yl)-3-(2-phenyl-2,4,5,6-tetrahydrocyclopenta[c]pyrazol-3-yl)urea], the IC50 was less than 100 nM. As for `COCC(N1C[C@@H](NC(=O)Nc2c3c(nn2-c2ccccc2)CCC3)[C@H](c2ccc(F)c(F)c2)C1)C(C)(C)O` (stereo partly drawn) [Example 261, 1-((3S,4R)-4-(3,4-difluorophenyl)-1-(3-hydroxy-1-methoxy-3-methylbutan-2-yl)pyrrolidin-3-yl)-3-(2-phenyl-2,4,5,6-tetrahydrocyclopenta[c]pyrazol-3-yl)urea], the figure is 100 to 1000 nM; as for `COCC(C(=O)O)N1C[C@@H](NC(=O)Nc2c3c(nn2-c2ccccc2)CCC3)[C@H](c2ccc(F)c(F)c2)C1` (stereo partly drawn) [Example 262, 2-((3R,4S)-3-(3,4-difluorophenyl)-4-(3-(2-phenyl-2,4,5,6-tetrahydrocyclopenta[c]pyrazol-3-yl)ureido)pyrrolidin-1-yl)-3-methoxypropanoic acid hydrochloride], 1000 to 10000 nM; as for `CCOc1nn(-c2ccccc2)c(NC(=O)N[C@@H]2CN(C(CO)COC)C[C@H]2c2ccc(F)c(F)c2)c1C` (stereo partly drawn) [Example 263, 1-((3S,4R)-4-(3,4-difluorophenyl)-1-(1-hydroxy-3-methoxypropan-2-yl)pyrrolidin-3-yl)-3-(3-ethoxy-4-methyl-1-phenyl-1H-pyrazol-5-yl)urea], less than 100 nM. `COCC(CO)N1C[C@@H](NC(=O)Nc2c(Cl)c(-c3cnn(C)c3)nn2-c2ccccc2)[C@H](c2ccc(F)c(F)c2)C1` (stereo partly shown) [Example 264] displayed an IC50 of less than 100 nM.

In turn, `Cc1nn(-c2ccccc2)c(NC(=O)N[C@H]2CN(CC(F)(F)F)C[C@@H]2c2ccccc2)c1C` [Example 265, 1-(3,4-dimethyl-1-phenyl-1H-pyrazol-5-yl)-3-((3R,4S)-4-phenyl-1-(2,2,2-trifluoroethyl)pyrrolidin-3-yl)urea] registered an IC50 of less than 100 nM.

Source of the values: patent US10323022B2, “Pyrrolidinyl urea, pyrrolidinyl thiourea and pyrrolidinyl guanidine compounds as TrkA kinase inhibitors” (Array BioPharma Inc., priority 2011, dated 2019).
